Measurements published in patent US20260068885A1, “HERBICIDAL COMPOSITIONS” (BAYER AKTIENGESELLSCHAFT, priority 2022, published 2026).

Columns and labels:
Experiment in all cases: Post-emergence herbicidal action against harmful plants (greenhouse)
Assay type in all cases: in vivo
[1] = test system: Erigeron bonariensis (ERIBO)
Protocol: (§1) Seeds of monocotyledonous and dicotyledonous weed and crop plants are laid out in sandy loam soil in wood-fibre pots, covered with soil and cultivated in a greenhouse under good growth conditions. 2 to 3 weeks after sowing, the test plants are treated at the one-leaf stage. The compounds of the invention, formulated in the form of wettable powders (WP) or as emulsion concentrates (EC), are then sprayed onto the green parts of the plants in the form of an aqueous suspension or emulsion at a water application rate equivalent to 600 to 800 l/ha, with addition of 0.2% wetting agent. After the test plants have been […], the action of the preparations is assessed visually in comparison to untreated controls (herbicidal action in percent (%): 100% activity=the plants have died, 0% activity=like control plants). […] The tables below illustrate, in an illustrative manner, the post-emergence herbicidal action of the compounds of the invention, the herbicidal activity being stated in percent.
(§2) In the tables that follow, the abbreviations mean the following: • E: means the synergism value to be expected according to the Colby formula. • Δ SYN: means the difference between the actual and expected synergism value. • DAT: means days after treatment.

Setaria viridis (SETVI) = test system: Setaria viridis (SETVI)
Protocol: as §1, §2

[2] = test system: Abutilon theophrasti (ABUTH)
Protocol: as §1, §2

Cyperus iria (CYPIR) = test system: Cyperus iria (CYPIR)
Protocol: as §1, §2

[3] = test system: Xanthium strumarium (XANST)
[4] = test system: Pharbitis purpurea (PHBPU)
[5] = test system: Polygonum convolvulus (POLCO)
[6] = test system: Xanthium strumarium (XANST); remark: listed apart in the source
Protocol: (§3) Seeds of monocotyledonous and dicotyledonous weed and crop plants are laid out in sandy loam soil in wood-fibre pots, covered with soil and cultivated in a greenhouse under good growth conditions. 2 to 3 weeks after sowing, the test plants are treated at the one-leaf stage. The compounds of the invention, formulated in the form of wettable powders (WP) or as emulsion concentrates (EC), are then sprayed onto the green parts of the plants in the form of an aqueous suspension or emulsion at a water application rate equivalent to 600 to 800 l/ha, with addition of 0.2% wetting agent. After the test plants have been left to stand in the greenhouse under optimal growth conditions for about 3 weeks, the action of the preparations is assessed visually in comparison to untreated controls (herbicidal action in percent (%): 100% activity=the plants have died, 0% activity=like control plants). […] The tables below illustrate, in an illustrative manner, the post-emergence herbicidal action of the compounds of the invention, the herbicidal activity being stated in percent.
as §2

[7] = test system: Sorghum halepense (SORHA)
Protocol: as §3, §2

Emex australis (EMEAU) = test system: Emex australis (EMEAU)
Protocol: as §3, §2

[8] = test system: Brachiaria platyphylla (BRAPP)
Protocol: as §3, §2

Solanum nigrum (SOLNI) = test system: Solanum nigrum (SOLNI)
Protocol: as §1, §2

[9] = test system: Euphorbia heterophylla (EPHHL); conditions: for Herbicidal efficacy: EPHHL 21 DAT
Protocol: as §3, §2

[10] = application rate 2 g a.i./ha, 21 DAT

CCn1ncc(C(=O)c2ccc(S(C)(=O)=O)c(COCC(F)(F)F)c2Cl)c1OC(=O)c1cn(C)nc1C [fenpyrazone]
50%: Herbicidal efficacy (Setaria viridis (SETVI); SETVI 10 DAT, 20 g a.i./ha)
20%: Herbicidal efficacy (Setaria viridis (SETVI); SETVI 21 DAT, 5 g a.i./ha) | Herbicidal efficacy (Setaria viridis (SETVI); SETVI 21 DAT, 20 g a.i./ha) | Herbicidal efficacy (Cyperus iria (CYPIR); CYPIR 10 DAT, 20 g a.i./ha) | Herbicidal efficacy [%] against SORHA 10 DAT ([7]; application rate 5 g a.i./ha) | Herbicidal efficacy [%] against SORHA 21 DAT ([7]; application rate 20 g a.i./ha) | Herbicidal efficacy ([8]; BRAPP 21 DAT, 20 g a.i./ha)
0%: Herbicidal efficacy ([4]; PHBPU 10 DAT, 5 g a.i./ha) | Herbicidal efficacy ([4]; PHBPU 21 DAT, 5 g a.i./ha) | Herbicidal efficacy ([5]; POLCO 10 DAT, 5 g a.i./ha) | Herbicidal efficacy ([5]; POLCO 21 DAT, 5 g a.i./ha) | Herbicidal efficacy (Emex australis (EMEAU); EMEAU 21 DAT, 20 g a.i./ha)
70%: Herbicidal efficacy [%] against XANST 21 DAT ([6]; application rate 20 g a.i./ha)
88%: Herbicidal efficacy [%] against XANST 10 DAT ([3]; application rate 20 g a.i./ha)
75%: Herbicidal efficacy ([8]; BRAPP 10 DAT, 20 g a.i./ha)
30%: Herbicidal efficacy (Setaria viridis (SETVI); SETVI 10 DAT, 5 g a.i./ha) | Herbicidal efficacy ([2]; ABUTH 21 DAT, 20 g a.i./ha) | Herbicidal efficacy (Cyperus iria (CYPIR); CYPIR 10 DAT, 5 g a.i./ha) | Herbicidal efficacy (Cyperus iria (CYPIR); CYPIR 21 DAT, 5 g a.i./ha) | Herbicidal efficacy [%] against SORHA 10 DAT ([7]; application rate 20 g a.i./ha) | Herbicidal efficacy ([8]; BRAPP 10 DAT, 5 g a.i./ha)
80%: Herbicidal efficacy ([1]; ERIBO 21 DAT, 5 g a.i./ha) | Herbicidal efficacy ([1]; ERIBO 21 DAT, 20 g a.i./ha)
10%: Herbicidal efficacy (Cyperus iria (CYPIR); CYPIR 21 DAT, 20 g a.i./ha) | Herbicidal efficacy ([5]; POLCO 21 DAT, 20 g a.i./ha) | Herbicidal efficacy [%] against SORHA 21 DAT ([7]; application rate 5 g a.i./ha) | Herbicidal efficacy ([8]; BRAPP 21 DAT, 5 g a.i./ha)

Cc1nnc(NC(=O)c2ccc(C(F)(F)F)c([S@+](C)[O-])c2Cl)o1 [I-5]
40%: Herbicidal efficacy [%] against ERIBO 21 DAT [1, 10] | Herbicidal efficacy (Setaria viridis (SETVI); SETVI 10 DAT, 2 g a.i./ha) | Herbicidal efficacy (Cyperus iria (CYPIR); CYPIR 21 DAT, 0.5 g a.i./ha) | Herbicidal efficacy [%] against PHBPU 21 DAT ([4]; application rate 0.5 g a.i./ha, 21 DAT) | Herbicidal efficacy [%] against EPHHL 21 DAT ([9]; application rate 2 g a.i./ha)
88%: Herbicidal efficacy [%] against EMEAU 21 DAT (Emex australis (EMEAU); application rate 2 g a.i./ha)
80%: Herbicidal efficacy (Cyperus iria (CYPIR); CYPIR 10 DAT, 2 g a.i./ha)
50%: Herbicidal efficacy (Cyperus iria (CYPIR); CYPIR 10 DAT, 0.5 g a.i./ha)
20%: Herbicidal efficacy (Solanum nigrum (SOLNI); SOLNI 10 DAT, 0.5 g a.i./ha) | Herbicidal efficacy (Solanum nigrum (SOLNI); SOLNI 21 DAT, 2 g a.i./ha) | Herbicidal efficacy [%] against SOLNI 10 DAT (Solanum nigrum (SOLNI); application rate 0.5 g a.i./ha) | Herbicidal efficacy [%] against SOLNI 21 DAT (Solanum nigrum (SOLNI); application rate 2 g a.i./ha) | Herbicidal efficacy (Setaria viridis (SETVI); SETVI 10 DAT, 0.5 g a.i./ha) | Herbicidal efficacy (Setaria viridis (SETVI); SETVI 21 DAT, 2 g a.i./ha) | Herbicidal efficacy ([2]; ABUTH 10 DAT, 0.5 g a.i./ha) | Herbicidal efficacy [%] against XANST 10 DAT ([3]; application rate 0.5 g a.i./ha) | Herbicidal efficacy ([4]; PHBPU 10 DAT, 2 g a.i./ha) | Herbicidal efficacy [%] against XANST 21 DAT ([6]; application rate 2 g a.i./ha) | Herbicidal efficacy [%] against SORHA 10 DAT ([7]; application rate 2 g a.i./ha) | Herbicidal efficacy (Emex australis (EMEAU); EMEAU 10 DAT, 0.5 g a.i./ha) | Herbicidal efficacy (Emex australis (EMEAU); EMEAU 10 DAT, 2 g a.i./ha) | Herbicidal efficacy [%] against EMEAU 21 DAT (Emex australis (EMEAU); application rate 0.5 g a.i./ha)
30%: Herbicidal efficacy ([2]; ABUTH 21 DAT, 2 g a.i./ha) | Herbicidal efficacy [%] against XANST 21 DAT ([3]; application rate 0.5 g a.i./ha, 21 DAT, table with flufenoximacil) | Herbicidal efficacy [%] against XANST 10 DAT ([3]; application rate 2 g a.i./ha) | Herbicidal efficacy [%] against POLCO 21 DAT [5, 10] | Herbicidal efficacy [%] against EMEAU 10 DAT (Emex australis (EMEAU); application rate 0.5 g a.i./ha, 10 DAT) | Herbicidal efficacy ([8]; BRAPP 10 DAT, 2 g a.i./ha) | Herbicidal efficacy [%] against EPHHL 21 DAT ([9]; application rate 0.5 g a.i./ha)
60%: Herbicidal efficacy (Solanum nigrum (SOLNI); SOLNI 10 DAT, 2 g a.i./ha) | Herbicidal efficacy [%] against SOLNI 10 DAT (Solanum nigrum (SOLNI); application rate 2 g a.i./ha) | Herbicidal efficacy ([2]; ABUTH 10 DAT, 2 g a.i./ha) | Herbicidal efficacy (Cyperus iria (CYPIR); CYPIR 21 DAT, 2 g a.i./ha)
10%: Herbicidal efficacy ([1]; ERIBO 10 DAT, 2 g a.i./ha) | Herbicidal efficacy (Setaria viridis (SETVI); SETVI 21 DAT, 0.5 g a.i./ha) | Herbicidal efficacy ([2]; ABUTH 21 DAT, 0.5 g a.i./ha) | Herbicidal efficacy [%] against XANST 21 DAT ([6]; application rate 0.5 g a.i./ha) | Herbicidal efficacy [%] against SORHA 21 DAT ([7]; application rate 2 g a.i./ha) | Herbicidal efficacy (Emex australis (EMEAU); EMEAU 21 DAT, 2 g a.i./ha) | Herbicidal efficacy ([9]; 2 g a.i./ha)
0%: Herbicidal efficacy ([1]; ERIBO 10 DAT, 0.5 g a.i./ha) | Herbicidal efficacy ([1]; ERIBO 21 DAT, 0.5 g a.i./ha) | Herbicidal efficacy ([1]; ERIBO 21 DAT, 2 g a.i./ha) | Herbicidal efficacy (Solanum nigrum (SOLNI); SOLNI 21 DAT, 0.5 g a.i./ha) | Herbicidal efficacy [%] against SOLNI 21 DAT (Solanum nigrum (SOLNI); application rate 0.5 g a.i./ha) | Herbicidal efficacy ([4]; PHBPU 10 DAT, 0.5 g a.i./ha) | Herbicidal efficacy ([4]; PHBPU 21 DAT, 0.5 g a.i./ha) | Herbicidal efficacy ([4]; PHBPU 21 DAT, 2 g a.i./ha) | Herbicidal efficacy ([5]; POLCO 10 DAT, 0.5 g a.i./ha) | Herbicidal efficacy ([5]; POLCO 10 DAT, 2 g a.i./ha) | Herbicidal efficacy ([5]; POLCO 21 DAT, 0.5 g a.i./ha) | Herbicidal efficacy ([5]; POLCO 21 DAT, 2 g a.i./ha) | Herbicidal efficacy [%] against SORHA 10 DAT ([7]; application rate 0.5 g a.i./ha) | Herbicidal efficacy [%] against SORHA 21 DAT ([7]; application rate 0.5 g a.i./ha) | Herbicidal efficacy (Emex australis (EMEAU); EMEAU 21 DAT, 0.5 g a.i./ha) | Herbicidal efficacy ([8]; BRAPP 10 DAT, 0.5 g a.i./ha) | Herbicidal efficacy ([8]; BRAPP 21 DAT, 0.5 g a.i./ha) | Herbicidal efficacy ([8]; BRAPP 21 DAT, 2 g a.i./ha) | Herbicidal efficacy ([9]; 0.5 g a.i./ha)
90%: Herbicidal efficacy [%] against SORHA 10 DAT ([7]; application rate 2 g a.i./ha, table with flufenoximacil)
